Source: patent US20100216779A1 (GLAXOSMITHKLINE LLC, priority 2007, published 2010)

Experiments:
Type in all cases: cell-based
[1] = target: T1, human IGF-1R (NIH-3T3 cells over expressing human IGF-1R) (Homo sapiens, UniProt P08069); assay: IGF-1R cellular autophosphorylation (DELFIA); details: IGF-1 stimulated
T1 construct: expressed in transfected cells; host or cells: NIH-3T3 (mouse fibroblasts)
Experimental: (§1) D. IGF-1R and IR Cellular Autophosphorylation (DELFIA)
(§2) NIH-3T3 cells over expressing human IGF-1R or IR were plated in 96-well plates (10,000 cells/well) in culture media containing 10% fetal bovine serum and incubated at 37° C. in a 5% CO2 incubator. Twenty four hours post-plating, cells were treated with different concentrations of test compounds ranging from 30 uM to 1.5 nM. Two hours after compound addition, cells were stimulated with either human IGF-1 (30 ng/mL) or insulin (3 ug/mL) for 15 minutes. Cell lysates are analyzed for phosphorylated receptors using dissociation enhanced lanthanide fluor-immuno assay (DELFIA) with anti-IGF-1R (MAB391, R&D Systems, Minneapolis, Minn.) or anti-IR[…](sc-711, Santa Cruz Biotechnology, Santa Cruz, Calif.) capture antibody and europium-labeled anti-pTyr antibody (Eu-N1 PT66, Perkin Elmer, Waltham, Mass.) for detection. The fluorescence signal for cells treated with compounds was expressed as percent relative to 100% stimulation (IGF-1 or insulin stimulated signal). […]

[2] = target: T2, IR (NIH-3T3 cells over expressing human IGF-1R or IR) (Homo sapiens, UniProt P06213); assay: IR cellular autophosphorylation (DELFIA); details: NIH-3T3 cells over expressing IR, insulin stimulated
T2 construct: expressed in transfected cells; host or cells: NIH-3T3 (mouse fibroblasts)
Experimental: as §1, §2

[3] = test system: COLO205 (colon); assay: Inhibition of cell proliferation, CellTiter-Glo, COLO205; details: Homo sapiens, COLO 205, 72 h
Experimental: C. Inhibition of Cell Proliferation
Cell proliferation was measured by either CellTiter-Glo (measures cellular ATP level as a surrogate for total cell number) or by InCell analyzer (counts number of nuclei as a measure of cell number). For CellTiter-Glo assay, exponentially growing cell lines of different tumor origins, cultured in appropriate media containing 10% fetal bovine serum at 37° C. in a 5% CO2 incubator, were plated at low density (less than 2000 cells/well) in 96-well plates. […] Several wells were left untreated as a control. Seventy two hours post-treatment, cell numbers were determined using 50-100 ul per well of CellTiter-Glo (Promega #G7573). Plates were incubated at 37° C. for 30 minutes and the chemiluminescent signal was read on the Victor V or Envison 2100 reader. […]

T1 sequence (P08069 31-1367): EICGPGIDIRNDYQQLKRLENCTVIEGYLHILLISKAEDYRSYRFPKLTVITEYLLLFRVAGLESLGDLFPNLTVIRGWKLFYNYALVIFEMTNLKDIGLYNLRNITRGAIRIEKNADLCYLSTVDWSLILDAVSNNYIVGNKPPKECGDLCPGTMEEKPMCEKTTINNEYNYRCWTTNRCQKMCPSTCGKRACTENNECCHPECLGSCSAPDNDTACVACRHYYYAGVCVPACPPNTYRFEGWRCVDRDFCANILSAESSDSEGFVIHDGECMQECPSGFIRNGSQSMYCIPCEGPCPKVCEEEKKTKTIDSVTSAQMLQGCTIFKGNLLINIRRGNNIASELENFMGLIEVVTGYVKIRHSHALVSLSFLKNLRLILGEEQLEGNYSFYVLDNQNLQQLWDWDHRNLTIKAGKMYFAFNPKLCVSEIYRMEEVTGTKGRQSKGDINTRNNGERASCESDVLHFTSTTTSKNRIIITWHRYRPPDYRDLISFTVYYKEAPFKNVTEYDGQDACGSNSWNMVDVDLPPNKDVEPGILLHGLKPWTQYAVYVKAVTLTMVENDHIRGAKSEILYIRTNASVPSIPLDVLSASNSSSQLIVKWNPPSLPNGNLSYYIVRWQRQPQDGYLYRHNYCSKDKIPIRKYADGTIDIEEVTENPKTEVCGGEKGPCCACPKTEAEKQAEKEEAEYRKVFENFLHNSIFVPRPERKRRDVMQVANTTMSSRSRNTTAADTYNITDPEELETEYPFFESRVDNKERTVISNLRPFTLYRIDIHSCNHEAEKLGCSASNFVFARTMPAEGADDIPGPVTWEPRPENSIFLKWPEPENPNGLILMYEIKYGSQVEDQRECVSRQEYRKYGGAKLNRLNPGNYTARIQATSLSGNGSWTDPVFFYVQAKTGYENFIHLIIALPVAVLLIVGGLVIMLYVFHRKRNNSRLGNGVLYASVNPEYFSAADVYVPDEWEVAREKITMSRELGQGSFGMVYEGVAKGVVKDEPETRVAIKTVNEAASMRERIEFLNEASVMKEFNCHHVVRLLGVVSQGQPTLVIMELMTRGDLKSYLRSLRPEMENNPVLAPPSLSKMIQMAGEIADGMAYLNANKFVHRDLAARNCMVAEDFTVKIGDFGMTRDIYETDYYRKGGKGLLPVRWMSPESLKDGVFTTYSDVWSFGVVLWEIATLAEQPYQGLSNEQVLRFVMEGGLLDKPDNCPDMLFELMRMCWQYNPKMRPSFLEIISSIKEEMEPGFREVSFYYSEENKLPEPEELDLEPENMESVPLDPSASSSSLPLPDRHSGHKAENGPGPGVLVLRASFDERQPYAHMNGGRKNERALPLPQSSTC
T2 sequence (P06213 28-1382): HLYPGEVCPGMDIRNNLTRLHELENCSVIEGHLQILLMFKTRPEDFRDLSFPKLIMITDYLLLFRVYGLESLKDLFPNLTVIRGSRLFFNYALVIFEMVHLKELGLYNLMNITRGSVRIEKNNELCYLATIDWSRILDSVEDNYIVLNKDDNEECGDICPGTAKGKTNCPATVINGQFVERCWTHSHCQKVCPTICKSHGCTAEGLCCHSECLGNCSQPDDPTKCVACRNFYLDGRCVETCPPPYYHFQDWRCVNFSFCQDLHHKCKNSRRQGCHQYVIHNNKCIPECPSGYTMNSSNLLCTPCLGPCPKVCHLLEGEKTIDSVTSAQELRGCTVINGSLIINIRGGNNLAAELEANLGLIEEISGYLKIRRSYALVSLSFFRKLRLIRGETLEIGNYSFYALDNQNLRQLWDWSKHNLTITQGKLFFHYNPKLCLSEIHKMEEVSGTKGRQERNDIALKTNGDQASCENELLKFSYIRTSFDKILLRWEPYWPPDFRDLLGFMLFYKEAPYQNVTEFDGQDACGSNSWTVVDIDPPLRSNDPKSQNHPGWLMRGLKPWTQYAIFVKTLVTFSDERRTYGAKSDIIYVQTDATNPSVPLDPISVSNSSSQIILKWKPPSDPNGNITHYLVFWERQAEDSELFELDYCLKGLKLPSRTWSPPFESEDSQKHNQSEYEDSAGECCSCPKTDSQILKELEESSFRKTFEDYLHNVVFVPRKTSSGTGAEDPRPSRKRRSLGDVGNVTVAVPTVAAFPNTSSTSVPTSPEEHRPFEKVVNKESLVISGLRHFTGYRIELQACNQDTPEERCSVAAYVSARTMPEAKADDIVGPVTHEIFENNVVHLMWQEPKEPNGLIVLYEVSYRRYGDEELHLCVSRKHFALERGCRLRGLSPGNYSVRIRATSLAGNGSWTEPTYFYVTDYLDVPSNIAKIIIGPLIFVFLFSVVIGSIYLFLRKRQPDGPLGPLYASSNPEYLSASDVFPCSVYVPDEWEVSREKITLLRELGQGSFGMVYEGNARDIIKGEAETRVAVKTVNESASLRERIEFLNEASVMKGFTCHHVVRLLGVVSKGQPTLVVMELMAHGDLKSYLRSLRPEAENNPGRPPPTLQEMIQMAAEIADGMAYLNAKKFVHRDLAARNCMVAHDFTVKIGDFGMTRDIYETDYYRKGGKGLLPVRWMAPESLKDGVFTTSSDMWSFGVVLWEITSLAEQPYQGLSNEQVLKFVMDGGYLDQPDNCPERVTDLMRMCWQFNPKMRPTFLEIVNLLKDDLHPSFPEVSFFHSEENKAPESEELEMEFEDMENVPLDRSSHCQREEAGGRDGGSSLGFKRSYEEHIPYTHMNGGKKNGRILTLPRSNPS

IC50 [1] [nM] | IC50 [2] [nM] | IC50 [3] [nM] | Compound
100 to 500 | > 500 | – | Cc1cc(OC2CCNCC2)ccc1Nc1nccc(-c2c(-c3cccc(C(=O)Nc4c(F)cccc4F)c3)nc3ccccn23)n1 [Example 6, N-(2,6-difluorophenyl)-3-[3-(2-{[2-methyl-4-(4-piperidinyloxy)phenyl]amino}-4-pyrimidinyl)imidazo[1,2-a]pyridin-2-yl]benzamide]
– | > 500 | > 1000 | COc1cc(-c2nnc(CN(C)C)o2)ccc1Nc1nccc(-c2c(-c3cccc(C(=O)Nc4c(F)cccc4F)c3)nc3ccccn23)n1 [Example 27, N-(2,6-difluorophenyl)-3-[3-(2-{[4-{5-[(dimethylamino)methyl]-1,3,4-oxadiazol-2-yl}-2-(methyloxy)phenyl]amino}-4-pyrimidinyl)imidazo[1,2-a]pyridin-2-yl]benzamide]
100 to 500 | – | 250 to 1000 | COc1cc(CCN2CCCCC2)c(F)cc1Nc1nccc(-c2c(-c3cccc(C(=O)Nc4c(F)cccc4F)c3)nc3ccccn23)n1 [Example 128, N-(2,6-difluorophenyl)-3-{3-[2-({5-fluoro-2-(methyloxy)-4-[2-(1-piperidinyl)ethyl]phenyl}-amino)-4-pyrimidinyl]imidazo[1,2-a]pyridin-2-yl}benzamide]
100 to 500 | – | 250 to 1000 | COc1cc(CCN2CCCCC2)c(F)cc1Nc1nccc(-c2c(-c3cccc(C(=O)Nc4c(F)cc(F)cc4F)c3)nc3ccccn23)n1 [Example 129, 3-{3-[2-({5-fluoro-2-(methyloxy)-4-[2-(1-piperidinyl)ethyl]phenyl}amino)-4-pyrimidinyl]imidazo[1,2-a]pyridin-2-yl}-N-(2,4,6-trifluorophenyl)benzamide]
100 to 500 | – | 250 to 1000 | COc1cc(CCN2CCOCC2)c(F)cc1Nc1nccc(-c2c(-c3ccc(OC)c(C(=O)Nc4c(F)cccc4F)c3)nc3ccccn23)n1 [Example 130, N-(2,6-difluorophenyl)-5-{3-[2-({5-fluoro-2-(methyloxy)-4-[2-(4-morpholinyl)ethyl]phenyl}-amino)-4-pyrimidinyl]imidazo[1,2-a]pyridin-2-yl}-2-(methyloxy)benzamide]
< 100 | – | < 250 | COc1cc(CCN2CCN(C)CC2)ccc1Nc1nccc(-c2c(-c3ccc(OC)c(C(=O)Nc4c(F)cccc4F)c3)nc3ccccn23)n1 [Example 131, N-(2,6-difluorophenyl)-2-(methyloxy)-5-{3-[2-({2-(methyloxy)-4-[2-(4-methyl-1-piperazinyl)ethyl]phenyl}amino)-4-pyrimidinyl]imidazo[1,2-a]pyridin-2-yl}benzamide]
< 100 | – | 250 to 1000 | COc1cc(CCN2CCN(C)CC2)ccc1Nc1nccc(-c2c(-c3cccc(C(=O)Nc4c(F)cccc4F)c3)nc3ccccn23)n1 [Example 132, N-(2,6-difluorophenyl)-3-{3-[2-({2-(methyloxy)-4-[2-(4-methyl-1-piperazinyl)ethyl]phenyl}amino)-4-pyrimidinyl]imidazo[1,2-a]pyridin-2-yl}benzamide]
< 100 | – | 250 to 1000 | COc1cc(N2CCN(C(C)C)CC2)ccc1Nc1nccc(-c2c(-c3cccc(C(=O)Nc4c(F)cccc4F)c3)nc3ccccn23)n1 [Example 175, N-(2,6-difluorophenyl)-3-[3-(2-{[4-[4-(1-methylethyl)-1-piperazinyl]-2-(methyloxy)phenyl]amino}-4-pyrimidinyl)imidazo[1,2-a]pyridin-2-yl]benzamide]

Compound | IC50 [1] [nM] | IC50 [2] [nM] | IC50 [3] [nM]
COc1cc(CCN2CCCCC2)c(F)cc1Nc1nccc(-c2c(-c3ccc(OC)c(C(=O)Nc4c(F)cccc4F)c3)nc3ccccn23)n1 [Example 127, N-(2,6-difluorophenyl)-5-{3-[2-({5-fluoro-2-(methyloxy)-4-[2-(1-piperidinyl)ethyl]phenyl}-amino)-4-pyrimidinyl}imidazo[1,2-a]pyridin-2-yl}-2-(methyloxy)benzamide] | < 100 | – | 250 to 1000
